Reference: US20210379021A1 (Race Oncology Ltd., priority 2018, published 2021)
Structures can show the parent of a compound that is named as a salt. Where two headings read alike, the source gives them in different places.

Columns and labels:
L-1210 leukemia cells = settings: cited from earlier work
[1] = cited from earlier work
[2] = in vivo; cited from earlier work
[3] = cited from earlier work; remark: listed apart in the source
Human Platelets = settings: cited from earlier work
[4] = tested on: P-388 leukemia and B-16 melanoma; settings: mouse, in vivo; cited from earlier work
Human tumor cells = settings: cited from earlier work
plasma proteins = settings: cited from earlier work
[5] = cited from earlier work; remark: listed apart in the source
[6] = tested on: hepatic microsomal enzymes; settings: in vitro; specific metabolites not identified; cited from earlier work
calf thymus DNA = settings: in vitro; cited from earlier work
[7] = in vivo; cited from earlier work; remark: listed apart in the source
DNA = settings: hypoxic conditions; cited from earlier work
tumor cells = settings: cited from earlier work
[8] = in vivo; cited from earlier work; remark: listed apart in the source
[9] = Filtration of 40 mg/mL stock mixture, content by HPLC; format: physicochemical; settings: 5-μm, 1.2-μm and 0.2-μm filters
Procedure: Finished vials are sealed under nitrogen and partial vacuum for storage. Storage of the vials is typically at 18° C. to 25° C.

[10] = Assay of reconstituted bisantrene dihydrochloride diluted in i.v. bag, with or without 0.2-μm filter, glass vs plastic sample vials; format: physicochemical
[11] = cited from earlier work; remark: listed apart in the source
[12] = tested on: colon 26, Lewis lung, Ridgway osteosarcoma, B16, Lieberman plasma cell, P388 or L1210 cancer cells; settings: cited from earlier work
[13] = high doses; cited from earlier work
[14] = cited from earlier work; remark: listed apart in the source

C(=N\NC1=NCCN1)/c1c2ccccc2c(/C=N/NC2=NCCN2)c2ccccc12 [bisantrene, 9,10-anthracenedicarboxaldehyde-bis [(4,5-dihydro-1H-imidazole-2-yl) hydrazine] dihydrochloride]
DNA strand breaks typical of inhibition of DNA topoisomerase II enzymes (L-1210 leukemia cells): induce protein-associated DNA strand breaks | DNA supercoiling indicative of DNA intercalation (L-1210 leukemia cells): induce altered DNA supercoiling | toxicity for which the Phase II study was terminated ([1]; heavily pretreated patients with metastatic breast cancer): significant local toxicity | alopecia (hair loss) compared with doxorubicin ([1]; human, in vivo): less intense | anemia and cumulative myelosuppressive toxic effects ([1]; human, in vivo): not encountered | cardiotoxicity in the clinic compared with other agents in its class ([1]; human, in vivo): less cardiotoxicity | electrocardiographic changes while receiving the drug ([1]; human, in vivo): No patients experienced electrocardiographic changes | fever ([1]; human, in vivo): mild fever | major dose-limiting toxic effect ([1]; human, in vivo): leukopenia | nausea or vomiting ([1]; human, in vivo): very little nausea or vomiting | patients reporting malaise ([1]; human, in vivo): up to one-half of patients | patients with anaphylactoid reactions following infusion ([1]; human, in vivo): Up to 10% | phlebitis along peripheral veins used for drug infusion ([1]; human, in vivo): severe phlebitis | radioangiocardiographic monitoring of cardiac function ([1]; human, in vivo): no decrease in ejection fraction | recovery from myelosuppression ([1]; human, in vivo): ≤ 19 days | thrombocytopenia ([1]; human, in vivo): mild | nadir for myelosuppression ([1]; schedule of every 3 to 4 weeks): 9 days | cardiotoxicity [2]: not cardiotoxic | dose excreted in the urine ([3]; in vivo): Less than 7% | route by which the majority of the drug is eliminated ([3]; in vivo): hepatobiliary route | area under the plasma concentration×time curve ([3]; intravenous dose 260 mg/m^2): 4400 µg·h/mL | area under the plasma concentration×time curve ([3]; intravenous dose 340 mg/m^2): 5700 µg·h/mL | beta phase of elimination ([3]; plasma): approximately 1.5 hours | initial distributive phase of elimination ([3]; plasma): 6 min | effect on platelet aggregation (Human Platelets): inhibit platelet aggregation | antitumor activity [4]: antitumor activity | sensitivity of human tumor cells (Human tumor cells; breast, ovarian, renal, small cell and non-small cell lung cancer, lymphoma, acute myelogenous leukemia, melanoma, gastric, adrenal, head and neck cancer): sensitive | activity in human colon cancer (Human tumor cells; tested in vitro): inactive | bound to plasma proteins (plasma proteins): More than 95% | maximally tolerated dose ([5]; daily×5, repeat every 4 week (Spiegel et al. 1982)): 80 mg/m^2 | maximally tolerated dose ([5]; monthly (every 3-4 week) (Von Hoff et al. 1981b)): 260 mg/m^2 | maximally tolerated dose ([5]; monthly (every 3-4 week), patients with poor bone marrow reserve): 240 mg/mg^2 | maximally tolerated dose ([5]; weekly×3 (Alberts et al. 1982)): 200 mg/m^2 | maximally tolerated dose ([5]; weekly×3, patients with poor bone marrow reserve (Alberts et al. 1982)): 150 mg/mg^2 | maximally tolerated dose ([5]; weekly×3, repeat every 4-5 week (Yap et al. 1982)): 150 mg/m^2 | metabolism by hepatic microsomal enzymes [6]: substrate | shape of DNA dissociation curves (calf thymus DNA): biphasic | brain levels [7]: extremely low | distribution to lymph nodes and bone marrow [7]: did distribute | tissues with the highest concentration (in descending order) [7]: kidney, liver, gallbladder, spleen, lung, and heart | cytotoxicity and DNA strand breaks (DNA): reduced | activity in clonogenic assays (tumor cells; breast, small cell lung, large cell lung, squamous cell lung, ovarian, pancreatic, renal, adrenal, head and neck, sarcoma, gastric, lymphoma and melanoma tumor cells): Activity | cross resistance with Adriamycin and mitoxantrone (tumor cells): lack of cross resistance | activity in clonogenic assays (tumor cells; colorectal cancer): not in colorectal cancer | precipitation of drug in the body [8]: precipitates in the body have been observed | effect of removal of particulates on content in solution [9]: does not diminish | assay after passage through 0.2-μm filter versus i.v. bag assay ([10]; sample collected in glass vials): approximately 5 % lower | assay after passage through 0.2-μm filter versus i.v. bag assay ([10]; sample collected in plastic vials): approximately matched | assay of fully diluted drug in the i.v. bag versus reconstituted drug in the finished vial ([10]; samples collected in glass vials): approximately 5 % lower | assay of fully diluted drug in the i.v. bag versus reconstituted drug in the finished vial ([10]; samples collected in plastic vials): no reduction | activity in refractory malignant melanoma ([11]; Phase II): inactive | activity in phase I clinical trials ([11]; hepatocellular cancer and hypernephroma (one patient each)): showed activity | activity in phase I clinical trials ([11]; lymphoma, myeloma, melanoma, renal cancer, tumors of the bladder and lung): showed activity | activity in Phase II clinical trials ([11]; patients with metastatic breast cancer): active | activity in human colon cancer ([11]; tested in vivo (Phase II, advanced colorectal cancer)): inactive | activity in phase I clinical trials ([11]; two other hypernephroma patients, five-day schedule): activity was also observed | activity in cancer models ([12]; intravenously (i.v.), intraperitoneally (i.p.), or subcutaneously (s.c.)): effective | activity in cancer models ([12]; orally): inactive | toxicities observed [13]: leukopenia, anorexia, diarrhea, injection site necrosis, enterocolitis, muscle degeneration, and pulmonary edema

O=C([O-])O.[Na+] [sodium bicarbonate]
effect of local injection on bisantrene extravasation necrosis [14]: blocked
